pIC50: −log10 of the molar value.
System: 233499-124-R-J3-PDC spheroids with HUVEC/MSC, viability
Assay: Anticancer human tumor 233499-124-R-J3-PDC patient-derived colon adenocarcinoma cell line growth inhibition [PI3K]
Details: for viability, T/C: stronger effect = lower value; active means viability on the fitted dose curve at most 10% of control; inactive means the rest
Method in brief: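 Tumor cells grown as multi-cell spheroids with HUVEC endothelial cells and MSC fibroblast-like stroma were treated with targeted agents combined with inavolisib, alpelisib, duvelisib or copanlisib. Doses fell in half-log steps from near clinical Cmax, else from 10 microM. Viability was measured.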

[1] = curve of first compound, second compound 0.0316 µM
[2] = curve of first compound, second compound 0.1 µM
[3] = curve of first compound, second compound 0.316 µM
[4] = curve of first compound, second compound 1 µM
[5] = second compound 0.0316 µM, first compound 0.0316 µM
[6] = second compound 0.0316 µM, first compound 0.1 µM
[7] = second compound 0.0316 µM, first compound 0.316 µM
[8] = second compound 0.0316 µM, first compound 1 µM
[9] = second compound 0.0316 µM, first compound 3.16 µM
[10] = second compound 0.0316 µM, first compound 10 µM
[11] = second compound 0.1 µM, first compound 0.0316 µM
[12] = second compound 0.1 µM, first compound 0.1 µM
[13] = second compound 0.1 µM, first compound 0.316 µM
[14] = second compound 0.1 µM, first compound 1 µM
[15] = second compound 0.1 µM, first compound 3.16 µM
[16] = second compound 0.1 µM, first compound 10 µM
[17] = second compound 0.316 µM, first compound 0.0316 µM
[18] = second compound 0.316 µM, first compound 0.1 µM
[19] = second compound 0.316 µM, first compound 0.316 µM
[20] = second compound 0.316 µM, first compound 1 µM
[21] = second compound 0.316 µM, first compound 3.16 µM
[22] = second compound 0.316 µM, first compound 10 µM
[23] = second compound 1 µM, first compound 0.0316 µM
[24] = second compound 1 µM, first compound 0.1 µM
[25] = second compound 1 µM, first compound 0.316 µM
[26] = second compound 1 µM, first compound 1 µM
[27] = second compound 1 µM, first compound 3.16 µM
[28] = second compound 1 µM, first compound 10 µM
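Further: spheroids exposed to agents for seven days before readout.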
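Wherever viability, T/C is given: percent viability relative to DMSO vehicle control taken as 100%.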

Cn1ncc(Cl)c1-c1cc(C(=O)NC(CN)Cc2cccc(F)c2)sc1Cl (configuration not stated) + Cc1nc(NC(=O)N2CCCC2C(N)=O)sc1-c1ccnc(C(C)(C)C(F)(F)F)c1
5.26: pIC50 [1]
5.58: pIC50 [4]
5.48: pIC50 [2]
inactive: viability, T/C [5] 110% | viability, T/C [6] 90.8% | viability, T/C [7] 87.1% | viability, T/C [8] 77.2% | viability, T/C [9] 70% | viability, T/C [10] 34.1% | viability, T/C [11] 102% | viability, T/C [12] 86.6% | viability, T/C [13] 82.8% | viability, T/C [14] 57.2% | viability, T/C [15] 53.5% | viability, T/C [16] 39.3% | viability, T/C [17] 85.3% | viability, T/C [18] 94% | viability, T/C [19] 76.2% | viability, T/C [20] 64.4% | viability, T/C [21] 62.1% | viability, T/C [22] 27.7% | viability, T/C [23] 81.9% | viability, T/C [24] 74.3% | viability, T/C [25] 72.7% | viability, T/C [26] 75.2% | viability, T/C [27] 45.3% | viability, T/C [28] 18.7% | viability, T/C (second compound 3.16 µM, first compound 0.0316 µM) 62% | viability, T/C (second compound 3.16 µM, first compound 0.1 µM) 69.9% | viability, T/C (second compound 3.16 µM, first compound 0.316 µM) 55.3% | viability, T/C (second compound 3.16 µM, first compound 1 µM) 38.1% | viability, T/C (second compound 3.16 µM, first compound 3.16 µM) 35.3% | viability, T/C (second compound 3.16 µM, first compound 10 µM) 14.4% | viability, T/C (second compound 10 µM, first compound 0.0316 µM) 29.3% | viability, T/C (second compound 10 µM, first compound 0.1 µM) 29.4% | viability, T/C (second compound 10 µM, first compound 0.316 µM) 23% | viability, T/C (second compound 10 µM, first compound 1 µM) 25.5% | viability, T/C (second compound 10 µM, first compound 3.16 µM) 30% | viability, T/C (second compound 10 µM, first compound 10 µM) 2.94%
6.25: pIC50 (curve of first compound, second compound 3.16 µM)
5.39: pIC50 [3]
> 7.50: pIC50 (curve of first compound, second compound 10 µM)

CC(Nc1ccc2c(c1)OCCn1cc(N3C(=O)OCC3C(F)F)nc1-2)C(N)=O (configuration not stated)
inactive: viability, T/C (compound 0.1 µM) 80.2% [middle of 8 runs] | viability, T/C (compound 1 µM) 71.6% [middle of 8 runs]
< 6.00: pIC50 (compound alone, run of 05/08/2023)

CC(Cn1ccc(-c2ccc(C#N)c(Cl)c2)n1)NC(=O)c1cc(C(C)O)[nH]n1 (configuration not stated) + CC(Nc1ccc2c(c1)OCCn1cc(N3C(=O)OCC3C(F)F)nc1-2)C(N)=O
5.13: pIC50 [3]
inactive: viability, T/C (second compound 0.00316 µM, first compound 0.0316 µM) 97.5% | viability, T/C (second compound 0.00316 µM, first compound 0.1 µM) 84.3% | viability, T/C (second compound 0.00316 µM, first compound 0.316 µM) 86.6% | viability, T/C (second compound 0.00316 µM, first compound 1 µM) 83.1% | viability, T/C (second compound 0.00316 µM, first compound 3.16 µM) 90.8% | viability, T/C (second compound 0.00316 µM, first compound 10 µM) 97.7% | viability, T/C (second compound 0.01 µM, first compound 0.0316 µM) 99.5% | viability, T/C (second compound 0.01 µM, first compound 0.1 µM) 77.7% | viability, T/C (second compound 0.01 µM, first compound 0.316 µM) 96.2% | viability, T/C (second compound 0.01 µM, first compound 1 µM) 83.4% | viability, T/C (second compound 0.01 µM, first compound 3.16 µM) 82.5% | viability, T/C (second compound 0.01 µM, first compound 10 µM) 76.8% | viability, T/C [5] 92.1% | viability, T/C [6] 82.4% | viability, T/C [7] 67.9% | viability, T/C [8] 93.9% | viability, T/C [9] 101% | viability, T/C [10] 83% | viability, T/C [11] 83.1% | viability, T/C [12] 89.3% | viability, T/C [13] 90% | viability, T/C [14] 80.3% | viability, T/C [15] 74.4% | viability, T/C [16] 71% | viability, T/C [17] 76% | viability, T/C [18] 63.7% | viability, T/C [19] 70.5% | viability, T/C [20] 73.6% | viability, T/C [21] 90.6% | viability, T/C [22] 41.2% | viability, T/C [23] 62% | viability, T/C [24] 62% | viability, T/C [25] 47.4% | viability, T/C [26] 62.6% | viability, T/C [27] 66% | viability, T/C [28] 54.6%
< 5.00: pIC50 (curve of first compound, second compound 0.00316 µM) | pIC50 (curve of first compound, second compound 0.01 µM) | pIC50 [1] | pIC50 [2] | pIC50 [4]

— PubChem BioAssay AID1963984 (Molecular Pharmacology Branch, DTP, NCI, 2024)
